PMC10818329, “An Ultra-Performance Liquid Chromatography–Tandem Mass Spectrometry (UPLC–MS/MS) Method for Qualifying DAPB in Rat Plasma and Application to Pharmacokinetic Studies” (Molecules, 2024)

Columns and labels:
[1] = Pharmacokinetic study of DAPB in rats (plasma, UPLC–MS/MS); assay type: in vivo, Sprague–Dawley (SD) rats
Experimental: Sprague–Dawley (SD) rats (180–200 g) were purchased from the Experimental Animal Center of Xi’an Jiaotong University (permit number SCXK 2017–003) and housed under controlled conditions (25 °C, 50 ± 5% humidity, and 12 h dark–light cycles). The animal protocol was approved by the Animal Ethics Committee of Xi’an Medical College. […] For the intravenous administration group, DAPB prepared in saline containing 5% DMSO was injected in the tail vein at a dose of 6 mg/kg. For the oral administration group, rats were given DAPB dissolved in 10% (2-hydroxypropyl)-β-cyclodextrin in water (10% HP-β-CD solution) containing 20% PEG200 and 20% propylene glycol at a dose of 30 mg/kg orally. Blood samples were collected in heparinized tubes pretreated with NaF via the ophthalmic venous plexus before and at 0.083, 0.17, 0.25, 0.50, 1.00, 2.00, 4.00, and 8.00 h after dosing. After centrifugation, the supernatant plasma was obtained and stored at −80 °C for further treatment. For the preparation of the plasma samples, 10 μL of the IS working solution (1 μg/mL), 1 μL of NaF (5 mg/mL), and 290 μL of acetonitrile were added to 100 μL of the plasma samples. Subsequently, the mixed plasma samples were centrifuged twice at 16,000× g for 5 min at 4 °C after vortexing for 30 s. For analysis, 10 μL of the supernatant was injected into the UPLC–MS/MS apparatus.

[2] = Stability of DAPB in rat plasma (NaF added); assay type: in vitro ADME; details: for Stability RE (%): n = 6
Experimental: Esterase widely exists in the blood, serum, and plasma of organisms. Therefore, DAPB may be unstable and easily hydrolyzed by plasma esterases owning to the ester group. In the method-development process, the stability of DAPB in whole blood and plasma was tested in detail. Low temperature is an important factor for maintaining the stability of the analyte; therefore, in our study, an ice-water bath was used to provide cooling conditions. Sodium fluoride (NaF), a typical esterase inhibitor, was pre-added in the collected blood samples to prevent the hydrolysis of DAPB. In the plasma with NaF added, DAPB was stable after being placed at room temperature for 4 h, −80 °C for 30 days, and then subject to three freeze/thaw cycles. In addition, the post-preparative plasma sample stored in an autosampler for 24 h remained stable.
The stability of DAPB in rat plasma was assessed by using QC samples at three concentrations in six replicates following three freeze/thaw cycles, short-term storage (room temperature for […]), long-term storage (−80 °C for 30 consecutive days), and autosampler rack storage (4 °C for 24 h). In freeze/thaw cycle tests, the QC samples were frozen and stored at −80 °C and then thawed at room temperature; this was repeated three times. The values of stability were calculated by comparing the concentrations of the QC samples following each storage period with the concentrations of the freshly prepared QC samples in the same analytical run.

SHR rats = test system: SHR rats; design: method as in PMID 37446639; details: cited from earlier work
[3] = Sprague-Dawley, rat plasma, intravenous administration at 6 mg/kg, mean ± SD (n = 6)
[4] = Sprague-Dawley, rat plasma, oral administration at 30 mg/kg, mean ± SD (n = 6)
[5] = rat plasma, oral administration at 30 mg/kg, mean ± SD (n = 6)

For `C[C@@H](NC(=O)C(O)Cc1ccc(O)c(O)c1)C(=O)N1CCC[C@H]1C(=O)OC1CC2CCC1(C)C2(C)C` (stereo partly drawn) [DAPB, (2R)-3-(3,4-dihydroxyphenyl)-2-hydroxypropionyl-L-alanyl-L-proline bornyl ester], the bioavailability ([1]; Sprague-Dawley, plasma, rat, oral 30 mg/kg vs intravenous 6 mg/kg) was 78.2%, the AUC(0-inf) [1, 3] was 13.8 ± 2.1 ng·h/mL and the AUC(0-t) [1, 3] was 11.8 ± 1.66 ng·h/mL. For the same compound, the half-life [1, 3] was 11.4 ± 0.6 min, the Vd ([1]; Sprague-Dawley, rat plasma, intravenous administration at 6 mg/kg, mean ± SD (n = 6), read-out: Vss) was 910 ± 24.4 L/kg and the AUC(0-inf) [1, 4] was 53.9 ± 8.34 ng·h/mL. The AUC(0-t) [1, 4] was 49.6 ± 7.92 ng·h/mL, the Cmax [1, 4] was 33.2 ± 10.9 ng/mL and the Tmax [1, 4] was 14.7 min. For the same compound, the half-life [1, 4] was 97.8 ± 21.6 min, the CL [1, 5] was 89,992.36 ± 10,292.61 mL/h/kg and the Vss [1, 5] was 264.73 ± 65.86 L/kg. For the same compound, the “Stability RE (%)” value ([2]; post-preparative rat plasma sample, autosampler rack (4 °C) for 24 h, spiked conc. 5 ng/mL) was −11.6%, the “Stability RE (%)” value ([2]; post-preparative rat plasma sample, autosampler rack (4 °C) for 24 h, spiked conc. 500 ng/mL) was −7.4% and the “Stability RE (%)” value ([2]; post-preparative rat plasma sample, autosampler rack (4 °C) for 24 h, spiked conc. 1000 ng/mL) was −3.4%. The “Stability RE (%)” value ([2]; rat plasma, room temperature for 2 h, spiked conc. 5 ng/mL) was −10.2%, the “Stability RE (%)” value ([2]; rat plasma, room temperature for 2 h, spiked conc. 500 ng/mL) was −7.5% and the “Stability RE (%)” value ([2]; rat plasma, room temperature for 2 h, spiked conc. 1000 ng/mL) was 1.2%. The “Stability RE (%)” value ([2]; rat plasma, three freeze/thaw cycles, spiked conc. 5 ng/mL) was −6.4%, the “Stability RE (%)” value ([2]; rat plasma, three freeze/thaw cycles, spiked conc. 500 ng/mL) was 2.6% and the “Stability RE (%)” value ([2]; rat plasma, three freeze/thaw cycles, spiked conc. 1000 ng/mL) was −2.0%. The “Stability RE (%)” value ([2]; rat plasma, −80 °C for 30 days, spiked conc. 5 ng/mL) was 5.3%, the “Stability RE (%)” value ([2]; rat plasma, −80 °C for 30 days, spiked conc. 500 ng/mL) was −6.2% and the “Stability RE (%)” value ([2]; rat plasma, −80 °C for 30 days, spiked conc. 1000 ng/mL) was −4.6%. For the same compound, the “Stability in plasma with NaF added (in words)” value ([2]; room temperature for 4 h, −80 °C for 30 days, three freeze/thaw cycles) was “stable”, the “Decrease of diastolic blood pressure (DBP)” value (SHR rats) was 35 mmHg and the “Decrease of systolic blood pressure (SBP)” value (SHR rats) was 50 mmHg.
